Measurements published in PubChem BioAssay (NCI).
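48-hour exposure; five concentrations; linearly interpolated endpoints. TGI denotes the concentration required for complete inhibition of growth.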

Legend:
Assay in all cases: growth of human tumour cells (NCI), 48 h
SK-OV-3 ovarian = tested on: SK-OV-3 ovarian
NCI/ADR-RES ovarian = tested on: NCI/ADR-RES ovarian
CCRF-CEM leukemia = tested on: CCRF-CEM leukemia
HOP-18 NSCLC = tested on: HOP-18 NSCLC
UACC-62 melanoma = tested on: UACC-62 melanoma
MALME-3M melanoma = tested on: MALME-3M melanoma
HCT-15 colon = tested on: HCT-15 colon
SR leukemia = tested on: SR leukemia
KM12 colon = tested on: KM12 colon
OVCAR-3 ovarian = tested on: OVCAR-3 ovarian
NCI-H522 lung = tested on: NCI-H522 lung
IGROV1 ovarian = tested on: IGROV1 ovarian
KM20L2 colon = tested on: KM20L2 colon
K-562 leukemia = tested on: K-562 leukemia
HCC-2998 colon = tested on: HCC-2998 colon
DU-145 prostate = tested on: DU-145 prostate
ACHN renal = tested on: ACHN renal
RXF 393 renal = tested on: RXF 393 renal
SK-MEL-2 melanoma = tested on: SK-MEL-2 melanoma
UO-31 renal = tested on: UO-31 renal
SK-MEL-5 melanoma = tested on: SK-MEL-5 melanoma
HOP-62 NSCLC = tested on: HOP-62 NSCLC
HL-60(TB) leukemia = tested on: HL-60(TB) leukemia
SNB-75 CNS = tested on: SNB-75 CNS
SF-295 CNS = tested on: SF-295 CNS
HOP-92 NSCLC = tested on: HOP-92 NSCLC
NCI-H226 lung = tested on: NCI-H226 lung
786-0 renal = tested on: 786-0 renal
DLD-1 colon = tested on: DLD-1 colon
OVCAR-5 ovarian = tested on: OVCAR-5 ovarian
SF-539 CNS = tested on: SF-539 CNS
A498 renal = tested on: A498 renal
COLO 205 colon = tested on: COLO 205 colon
HT29 colon = tested on: HT29 colon
SN12C renal = tested on: SN12C renal
EKVX NSCLC = tested on: EKVX NSCLC
TK-10 renal = tested on: TK-10 renal
CAKI-1 renal = tested on: CAKI-1 renal
MOLT-4 leukemia = tested on: MOLT-4 leukemia
DMS 114 small cell lung = tested on: DMS 114 small cell lung
SW-620 colon = tested on: SW-620 colon
RPMI-8226 leukemia = tested on: RPMI-8226 leukemia
HCT-116 colon = tested on: HCT-116 colon
SF-268 CNS = tested on: SF-268 CNS
M14 melanoma = tested on: M14 melanoma
M19-MEL melanoma = tested on: M19-MEL melanoma
NCI-H460 lung = tested on: NCI-H460 lung
A549 NSCLC = tested on: A549 NSCLC
SNB-78 CNS = tested on: SNB-78 CNS
OVCAR-4 ovarian = tested on: OVCAR-4 ovarian
NCI-H23 lung = tested on: NCI-H23 lung
DMS 273 small cell lung = tested on: DMS 273 small cell lung
OVCAR-8 ovarian = tested on: OVCAR-8 ovarian
U251 CNS = tested on: U251 CNS
LXFL 529 NSCLC = tested on: LXFL 529 NSCLC
SK-MEL-28 melanoma = tested on: SK-MEL-28 melanoma
UACC-257 melanoma = tested on: UACC-257 melanoma
SNB-19 CNS = tested on: SNB-19 CNS

CCCCC(=O)OC[n+]1ccc2c(C)c3[nH]c4ccccc4c3c(C)c2c1
TGI (SK-OV-3 ovarian): 2640 nM | TGI (NCI/ADR-RES ovarian): 2930 nM | TGI (CCRF-CEM leukemia): 4.08 µM | TGI (HOP-18 NSCLC): 9.74 µM | TGI (UACC-62 melanoma): 1720 nM | TGI (MALME-3M melanoma): 2980 nM | TGI (HCT-15 colon): 1590 nM | TGI (SR leukemia): 2310 nM | TGI (KM12 colon): 2000 nM | TGI (OVCAR-3 ovarian): 2540 nM | TGI (NCI-H522 lung): 2330 nM | TGI (IGROV1 ovarian): 6.23 µM | TGI (KM20L2 colon): 2790 nM | TGI (K-562 leukemia): 1630 nM | TGI (HCC-2998 colon): 978 nM | TGI (DU-145 prostate): 2730 nM | TGI (ACHN renal): 1810 nM | TGI (RXF 393 renal): 2520 nM | TGI (SK-MEL-2 melanoma): 11.5 µM | TGI (UO-31 renal): 3.69 µM | TGI (SK-MEL-5 melanoma): 2840 nM | TGI (HOP-62 NSCLC): 2050 nM | TGI (HL-60(TB) leukemia): 2930 nM | TGI (SNB-75 CNS): 2590 nM | TGI (SF-295 CNS): 1970 nM | TGI (HOP-92 NSCLC): 6.44 µM | TGI (NCI-H226 lung): 2060 nM | TGI (786-0 renal): 1620 nM | TGI (DLD-1 colon): 1640 nM | TGI (OVCAR-5 ovarian): 1820 nM | TGI (SF-539 CNS): 2000 nM | TGI (A498 renal): 2620 nM | TGI (COLO 205 colon): 2220 nM | TGI (HT29 colon): 2440 nM | TGI (SN12C renal): 2000 nM | TGI (EKVX NSCLC): 3.04 µM | TGI (TK-10 renal): 5.01 µM | TGI (CAKI-1 renal): 4.56 µM | TGI (MOLT-4 leukemia): 3.01 µM

NCCN1C(=O)C2C3c4ccccc4C(c4ccccc43)C2C1=O (stereo not drawn)
TGI (SK-OV-3 ovarian): > 100000 nM | TGI (DMS 114 small cell lung): > 100 µM | TGI (CCRF-CEM leukemia): > 100 µM | TGI (HOP-18 NSCLC): > 100 µM | TGI (UACC-62 melanoma): > 100000 nM | TGI (MALME-3M melanoma): > 100000 nM | TGI (HCT-15 colon): > 100000 nM | TGI (SW-620 colon): > 100 µM | TGI (KM12 colon): > 100000 nM | TGI (RPMI-8226 leukemia): > 100 µM | TGI (HCT-116 colon): > 100 µM | TGI (OVCAR-3 ovarian): > 100000 nM | TGI (SF-268 CNS): > 100 µM | TGI (M14 melanoma): > 100 µM | TGI (NCI-H522 lung): > 100000 nM | TGI (M19-MEL melanoma): > 100 µM | TGI (IGROV1 ovarian): > 100 µM | TGI (KM20L2 colon): > 100000 nM | TGI (K-562 leukemia): > 100000 nM | TGI (HCC-2998 colon): > 100000 nM | TGI (NCI-H460 lung): > 100 µM | TGI (ACHN renal): > 100000 nM | TGI (A549 NSCLC): > 100 µM | TGI (SNB-78 CNS): > 100 µM | TGI (OVCAR-4 ovarian): > 100 µM | TGI (SK-MEL-2 melanoma): > 100 µM | TGI (UO-31 renal): > 100 µM | TGI (NCI-H23 lung): > 100 µM | TGI (SK-MEL-5 melanoma): > 100000 nM | TGI (DMS 273 small cell lung): > 100 µM | TGI (HOP-62 NSCLC): > 100000 nM | TGI (HL-60(TB) leukemia): > 100000 nM | TGI (OVCAR-8 ovarian): > 100 µM | TGI (SNB-75 CNS): > 100000 nM | TGI (U251 CNS): > 100 µM | TGI (SF-295 CNS): > 100000 nM | TGI (HOP-92 NSCLC): > 100 µM | TGI (NCI-H226 lung): > 100000 nM | TGI (786-0 renal): > 100000 nM | TGI (DLD-1 colon): > 100000 nM | TGI (OVCAR-5 ovarian): > 100000 nM | TGI (LXFL 529 NSCLC): > 100 µM | TGI (SF-539 CNS): > 100000 nM | TGI (SK-MEL-28 melanoma): > 100 µM | TGI (A498 renal): > 100000 nM | TGI (COLO 205 colon): > 100000 nM | TGI (HT29 colon): > 100000 nM | TGI (SN12C renal): > 100000 nM | TGI (UACC-257 melanoma): > 100 µM | TGI (EKVX NSCLC): > 100 µM | TGI (SNB-19 CNS): > 100 µM | TGI (TK-10 renal): > 100 µM | TGI (CAKI-1 renal): > 100 µM | TGI (MOLT-4 leukemia): > 100 µM
